For experiment [1], the target named is T1, MIF produced by THP-1 cells (Homo sapiens, UniProt P14174).
T1 construct: a test cell may express the MIF naturally (e.g., THP-1 cells); endogenous in cells; host or cells: THP-1 cells stimulated with LPS
T1 sequence (P14174 2-115 limits assumed): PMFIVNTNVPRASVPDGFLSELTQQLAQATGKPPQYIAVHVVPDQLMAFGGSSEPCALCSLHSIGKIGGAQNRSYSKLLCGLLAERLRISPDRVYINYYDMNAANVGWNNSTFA
The experiment can be described thus: ELISA of immunoreactive MIF from LPS stimulated THP-1 cells treated with compound. It counts as cell-based. As for the experimental part: Alternatively, ELISA may be preferred to detect and quantify the amount of MIF in cell supernatants. ELISA is preferred for detection in high throughput screening. Briefly, 96-well plates are coated with an anti-MIF antibody or anti-tag antibody, washed, and blocked with 2% BSA. Cell supernatant is then added to the wells. Following incubation and washing, a second antibody (e.g., to MIF) is added. The second antibody may be coupled to a label or detecting reagent, such as an enzyme or to biotin. Following further incubation, a developing reagent is added and the amount of MIF determined using an ELISA plate reader. The developing reagent is a substrate for the enzyme coupled to the second antibody (typically an anti-isotype antibody) or for the enzyme coupled to streptavidin. Suitable enzymes are well known in the art and include horseradish peroxidase, which acts upon a substrate (e.g., ABTS) resulting in a colorimetric reaction. It is recognized that rather than using a second antibody coupled to an enzyme, the anti-MIF antibody may be directly coupled to the horseradish peroxidase, or other equivalent detection reagent. If desired, cell supernatants may be concentrated to raise the detection level. Further, detection methods, such as ELISA and the like may be employed to monitor intracellular as well as extracellular levels of MIF. When intracellular levels are desired, a cell lysate is preferred. When extracellular levels are desired, media can be screened.
In another experiment (FIG. 2), varying concentrations of five different inhibitor analogs were added to LPS stimulated THP-1 cells and allowed to incubate overnight. The following day the amount of immunoreactive MIF detected was evaluated by ELISA. Compound 7e inhibited the ability of the antibody to recognize MIF in a dose dependent fashion with an ED50 of 2 μM, similar to the response obtained with analogs compound 7b and compound 7d.
In a further experiment (FIG. 3), the ability of compound 7e to decrease the immunoreactivity of MIF produced by THP-1 cells was determined. THP-1 cells were treated with 10 μg/ml of LPS and 10 μM of compound 7e was added at various times post-LPS stimulation and immunoreactivity monitored with an anti-MIF monoclonal. […] Thus, this experiment measures the activity of compounds or buffer alone controls on MIF detection when the compounds are initially added at various times to cell cultures and then the corresponding conditioned media samples are processed in a time dependent fashion thereafter.
(In general: An ELISA detects its analyte on a solid surface through an enzyme-linked reagent.)

Another experiment has as its target T2, MIF (Homo sapiens, UniProt P14174).
T2 sequence (P14174 2-115 limits assumed): T1 sequence (P14174 2-115 limits assumed)
The experiment can be described thus: Immunoprecipitation of MIF from conditioned media of LPS treated THP-1 cells with monoclonal or polyclonal antibody. The class given is cell-based. Conditions: 10 μM compound; LPS 10 μg/ml; not observed with polyclonal antibody. The protocol: Cell culture experiments were designed to characterize the activity of candidate compounds, MIF expression, trafficking, and export. Cell and conditioned medium fractions are prepared for immunoprecipitation essentially as described previously (Florkiewicz et al., Growth Factors 4:265–275, 1991; Florkiewicz et al., Ann. N.Y. Acad. Sci. 638:109–126) except that 400 μl of lysis buffer (1% NP-40, 0.5% deoxycholate, 20 mM Tris pH 7.5, 5 mM EDTA, 2 mM EGTA, 0.01 mM phenylmethylsufonyl fluoride, 10 ng/ml aprotinin, 10 ng/ml leupeptin, 10 ng/ml peptstatin) is added to the medium fraction after clarification by centrifugation in a microfuge for 15 minutes. Cell or medium fractions are incubated with monoclonal or polyclonal antibodies to MIF and GammaBind™ G Sepharose® (Pharmacia LKB Biotechnology, Uppsala, Sweden) was added for an additional 30 minutes incubation. Immune complexes are sedimented by microfuge centrifugation, washed three times with lysis buffer, and four times with ice cold immunoprecipitation wash buffer (0.15M NaCl, 0.01 M Na-phosphate pH 7.2, 1% deoxycholate, 1% NP-40, 0.1% sodium dodecyl sulfate). Immune complexes are dissociated directly in SDS gel sample buffer 125 mM Tris, pH 6.8, 4% SDS, 10% glycerol, 0.004% bromphenol blue, 2 mM EGTA, and separated by 12% SDS-PAGE. The gel is processed for fluorography, dried, and exposed to X-ray film at −70° C. […]

This note sets out measurements from patent US7084141B2, “Inhibitors of macrophase migration inhibitory factor and methods for identifying the same” (Avanir Pharmaceuticals, priority 2001, dated 2006).

pEC50: −log10 of the molar value.

`Cn1c(=O)c([N+](=O)[O-])c(N2CCN(C(=O)c3ccco3)CC2)c2ccccc21` [compound 7e]: the “immunoreactivity of MIF with anti-MIF monoclonal” value in experiment [1] (10 μM added at various times post-LPS (10 μg/ml)) is “immunoreactivity is rapidly lost”. In experiment [1] (LPS stimulated THP-1 cells, incubated overnight, read-out: ED50, inhibition of the ability of the antibody to recognize MIF (ELISA)), the pEC50 is 5.70. Besides, the “detectable MIF in conditioned media using the monoclonal antibody” value at MIF is “significant loss of detectable MIF”.
